Read-outs that look alike come from different tables or passages of the source.
Experiments:
Experiment in all cases: Kinase activity test (ReactionBiology), % enzyme activity relative to DMSO
Type in all cases: biochemical
DAPK1 = target: T1, DAPK1 (Homo sapiens, UniProt P53355)
T1 construct: purchased ReactionBiology

EPHB4 = target: T2, EPHB4 (Homo sapiens, UniProt P54760);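 further: EPHB4 was one of ten selected kinases in the screening panel, with enzyme activity expressed as a percentage of DMSO controls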
T2 construct: purchased ReactionBiology
T2 sequence (P54760 16-987): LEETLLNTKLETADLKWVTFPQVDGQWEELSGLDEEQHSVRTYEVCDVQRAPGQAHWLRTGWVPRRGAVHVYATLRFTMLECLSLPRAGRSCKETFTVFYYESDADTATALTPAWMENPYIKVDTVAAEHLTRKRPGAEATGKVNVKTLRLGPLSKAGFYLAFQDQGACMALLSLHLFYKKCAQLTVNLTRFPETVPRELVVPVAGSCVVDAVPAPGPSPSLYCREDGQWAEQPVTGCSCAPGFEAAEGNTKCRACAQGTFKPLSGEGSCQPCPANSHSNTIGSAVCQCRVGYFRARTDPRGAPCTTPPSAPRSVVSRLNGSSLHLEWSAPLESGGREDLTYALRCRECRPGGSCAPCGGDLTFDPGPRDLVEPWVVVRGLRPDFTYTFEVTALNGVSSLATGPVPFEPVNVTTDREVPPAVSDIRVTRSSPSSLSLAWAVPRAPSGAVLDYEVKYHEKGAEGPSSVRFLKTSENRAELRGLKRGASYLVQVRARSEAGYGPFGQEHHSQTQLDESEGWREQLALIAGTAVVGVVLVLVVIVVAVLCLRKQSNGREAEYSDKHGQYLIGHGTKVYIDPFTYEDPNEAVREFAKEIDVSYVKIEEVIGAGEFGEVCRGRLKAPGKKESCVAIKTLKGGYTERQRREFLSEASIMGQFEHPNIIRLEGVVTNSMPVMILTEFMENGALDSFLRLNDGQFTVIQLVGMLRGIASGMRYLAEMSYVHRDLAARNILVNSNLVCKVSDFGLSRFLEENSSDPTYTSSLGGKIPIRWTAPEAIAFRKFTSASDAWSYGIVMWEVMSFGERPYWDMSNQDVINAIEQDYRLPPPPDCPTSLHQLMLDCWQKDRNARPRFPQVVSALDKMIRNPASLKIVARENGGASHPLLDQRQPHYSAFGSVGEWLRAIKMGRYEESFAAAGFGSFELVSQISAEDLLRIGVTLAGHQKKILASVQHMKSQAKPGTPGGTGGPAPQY

CK1d = target: T3, CK1d (Homo sapiens, UniProt P48730)
T3 construct: purchased ReactionBiology
T3 sequence (P48730 whole entry): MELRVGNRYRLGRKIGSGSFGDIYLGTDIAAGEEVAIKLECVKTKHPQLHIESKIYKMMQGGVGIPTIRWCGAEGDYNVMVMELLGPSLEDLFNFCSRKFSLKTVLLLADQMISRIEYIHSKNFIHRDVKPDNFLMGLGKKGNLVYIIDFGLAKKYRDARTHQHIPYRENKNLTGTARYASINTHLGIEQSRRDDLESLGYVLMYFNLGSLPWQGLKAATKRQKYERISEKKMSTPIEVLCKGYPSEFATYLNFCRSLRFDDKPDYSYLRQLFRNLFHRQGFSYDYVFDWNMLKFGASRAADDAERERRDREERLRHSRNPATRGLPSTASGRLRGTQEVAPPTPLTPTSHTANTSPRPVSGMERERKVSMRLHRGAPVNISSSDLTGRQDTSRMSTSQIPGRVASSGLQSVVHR

VEGFR2 = VEGFR2 (Homo sapiens, UniProt P35968); parameters: purchased ReactionBiology; settings: VEGFR2;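 further: VEGFR2 was one member of a ten-kinase screening panel testing marketed FDA-approved drugs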
Sequence of VEGFR2 (P35968 20-1356): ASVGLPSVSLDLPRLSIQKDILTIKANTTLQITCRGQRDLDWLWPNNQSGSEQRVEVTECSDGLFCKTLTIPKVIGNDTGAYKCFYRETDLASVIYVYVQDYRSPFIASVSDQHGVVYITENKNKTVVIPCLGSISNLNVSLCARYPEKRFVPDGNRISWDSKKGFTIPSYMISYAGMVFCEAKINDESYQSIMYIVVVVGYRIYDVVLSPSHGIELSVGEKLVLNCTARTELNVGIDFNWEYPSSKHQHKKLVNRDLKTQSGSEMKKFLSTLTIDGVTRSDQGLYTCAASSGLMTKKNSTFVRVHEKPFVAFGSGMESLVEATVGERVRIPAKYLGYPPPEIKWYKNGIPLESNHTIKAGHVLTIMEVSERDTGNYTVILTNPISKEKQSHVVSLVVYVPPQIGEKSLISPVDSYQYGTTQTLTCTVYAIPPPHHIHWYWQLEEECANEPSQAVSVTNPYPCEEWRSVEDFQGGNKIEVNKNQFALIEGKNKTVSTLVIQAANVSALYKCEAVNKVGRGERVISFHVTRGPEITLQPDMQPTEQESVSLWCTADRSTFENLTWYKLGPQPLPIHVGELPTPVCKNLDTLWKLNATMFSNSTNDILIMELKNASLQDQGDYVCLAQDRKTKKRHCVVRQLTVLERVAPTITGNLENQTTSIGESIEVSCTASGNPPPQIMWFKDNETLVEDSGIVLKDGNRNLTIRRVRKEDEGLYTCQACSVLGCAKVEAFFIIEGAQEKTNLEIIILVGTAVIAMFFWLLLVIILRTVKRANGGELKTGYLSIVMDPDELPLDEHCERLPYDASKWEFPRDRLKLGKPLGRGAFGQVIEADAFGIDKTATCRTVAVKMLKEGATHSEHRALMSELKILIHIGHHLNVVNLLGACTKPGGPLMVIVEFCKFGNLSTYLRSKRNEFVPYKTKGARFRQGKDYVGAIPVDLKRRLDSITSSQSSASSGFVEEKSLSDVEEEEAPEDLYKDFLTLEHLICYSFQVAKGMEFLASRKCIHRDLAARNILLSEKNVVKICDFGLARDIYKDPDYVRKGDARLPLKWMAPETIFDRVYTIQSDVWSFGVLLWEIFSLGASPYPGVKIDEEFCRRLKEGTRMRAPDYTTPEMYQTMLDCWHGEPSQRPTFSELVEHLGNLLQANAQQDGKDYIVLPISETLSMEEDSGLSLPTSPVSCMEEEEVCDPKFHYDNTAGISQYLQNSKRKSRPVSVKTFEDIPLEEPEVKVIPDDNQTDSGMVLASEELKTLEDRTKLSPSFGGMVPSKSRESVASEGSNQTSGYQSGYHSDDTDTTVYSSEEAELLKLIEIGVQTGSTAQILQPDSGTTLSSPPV

NEK2 = target: T4, NEK2 (Homo sapiens, UniProt P51955); settings: NEK2, replicate Data 1;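 further: FDA-approved drugs chosen by structure-based repositioning, each screened at 10 or 1 µM for kinase activity, expressed as percent of DMSO controls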
T4 construct: purchased ReactionBiology
T4 sequence (P51955 1-445): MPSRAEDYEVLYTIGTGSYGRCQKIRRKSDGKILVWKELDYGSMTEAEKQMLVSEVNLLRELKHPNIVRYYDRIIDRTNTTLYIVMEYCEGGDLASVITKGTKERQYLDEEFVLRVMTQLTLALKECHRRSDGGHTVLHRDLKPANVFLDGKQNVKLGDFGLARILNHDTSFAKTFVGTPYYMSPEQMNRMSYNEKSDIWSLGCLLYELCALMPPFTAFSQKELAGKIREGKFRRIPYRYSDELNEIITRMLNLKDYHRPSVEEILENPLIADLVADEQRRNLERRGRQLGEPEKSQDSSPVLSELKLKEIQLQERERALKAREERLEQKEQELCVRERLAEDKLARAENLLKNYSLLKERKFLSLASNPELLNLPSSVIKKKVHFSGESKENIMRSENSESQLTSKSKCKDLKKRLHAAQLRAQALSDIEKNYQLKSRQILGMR

[1] = DAPK1, 1 uM, Average, read-out: % Enzyme Activity (relative to DMSO controls), Average
[2] = DAPK1, 1 uM, replicate Data 1, read-out: % Enzyme Activity (relative to DMSO controls), Data 1
[3] = DAPK1, 1 uM, replicate Data 2, read-out: % Enzyme Activity (relative to DMSO controls), Data 2
[4] = DAPK1, 10 uM, Average, read-out: % Enzyme Activity (relative to DMSO controls), Average
[5] = DAPK1, 10 uM, replicate Data 1, read-out: % Enzyme Activity (relative to DMSO controls), Data 1
[6] = DAPK1, 10 uM, replicate Data 2, read-out: % Enzyme Activity (relative to DMSO controls), Data 2
[7] = EPHB4, 1 uM, Average, read-out: % Enzyme Activity (relative to DMSO controls), Average
[8] = EPHB4, 1 uM, replicate Data 1, read-out: % Enzyme Activity (relative to DMSO controls), Data 1
[9] = EPHB4, 1 uM, replicate Data 2, read-out: % Enzyme Activity (relative to DMSO controls), Data 2
[10] = EPHB4, 10 uM, Average, read-out: % Enzyme Activity (relative to DMSO controls), Average
[11] = EPHB4, 10 uM, replicate Data 1, read-out: % Enzyme Activity (relative to DMSO controls), Data 1
[12] = EPHB4, 10 uM, replicate Data 2, read-out: % Enzyme Activity (relative to DMSO controls), Data 2
[13] = CK1d, 1 uM, Average, read-out: % Enzyme Activity (relative to DMSO controls), Average
[14] = CK1d, 1 uM, replicate Data 1, read-out: % Enzyme Activity (relative to DMSO controls), Data 1
[15] = CK1d, 1 uM, replicate Data 2, read-out: % Enzyme Activity (relative to DMSO controls), Data 2
[16] = CK1d, 10 uM, Average, read-out: % Enzyme Activity (relative to DMSO controls), Average
[17] = CK1d, 10 uM, replicate Data 1, read-out: % Enzyme Activity (relative to DMSO controls), Data 1
[18] = CK1d, 10 uM, replicate Data 2, read-out: % Enzyme Activity (relative to DMSO controls), Data 2
[19] = 1 uM, Average, read-out: % Enzyme Activity (relative to DMSO controls), Average
[20] = 1 uM, replicate Data 1, read-out: % Enzyme Activity (relative to DMSO controls), Data 1
[21] = 1 uM, replicate Data 2, read-out: % Enzyme Activity (relative to DMSO controls), Data 2
[22] = 10 uM, Average, read-out: % Enzyme Activity (relative to DMSO controls), Average
[23] = 10 uM, replicate Data 1, read-out: % Enzyme Activity (relative to DMSO controls), Data 1
[24] = 10 uM, replicate Data 2, read-out: % Enzyme Activity (relative to DMSO controls), Data 2
[25] = read-out: % Enzyme Activity (relative to DMSO controls), Average
[26] = read-out: % Enzyme Activity (relative to DMSO controls), Data 1
[27] = read-out: % Enzyme Activity (relative to DMSO controls), Data 2

T1 sequence (P53355 whole entry): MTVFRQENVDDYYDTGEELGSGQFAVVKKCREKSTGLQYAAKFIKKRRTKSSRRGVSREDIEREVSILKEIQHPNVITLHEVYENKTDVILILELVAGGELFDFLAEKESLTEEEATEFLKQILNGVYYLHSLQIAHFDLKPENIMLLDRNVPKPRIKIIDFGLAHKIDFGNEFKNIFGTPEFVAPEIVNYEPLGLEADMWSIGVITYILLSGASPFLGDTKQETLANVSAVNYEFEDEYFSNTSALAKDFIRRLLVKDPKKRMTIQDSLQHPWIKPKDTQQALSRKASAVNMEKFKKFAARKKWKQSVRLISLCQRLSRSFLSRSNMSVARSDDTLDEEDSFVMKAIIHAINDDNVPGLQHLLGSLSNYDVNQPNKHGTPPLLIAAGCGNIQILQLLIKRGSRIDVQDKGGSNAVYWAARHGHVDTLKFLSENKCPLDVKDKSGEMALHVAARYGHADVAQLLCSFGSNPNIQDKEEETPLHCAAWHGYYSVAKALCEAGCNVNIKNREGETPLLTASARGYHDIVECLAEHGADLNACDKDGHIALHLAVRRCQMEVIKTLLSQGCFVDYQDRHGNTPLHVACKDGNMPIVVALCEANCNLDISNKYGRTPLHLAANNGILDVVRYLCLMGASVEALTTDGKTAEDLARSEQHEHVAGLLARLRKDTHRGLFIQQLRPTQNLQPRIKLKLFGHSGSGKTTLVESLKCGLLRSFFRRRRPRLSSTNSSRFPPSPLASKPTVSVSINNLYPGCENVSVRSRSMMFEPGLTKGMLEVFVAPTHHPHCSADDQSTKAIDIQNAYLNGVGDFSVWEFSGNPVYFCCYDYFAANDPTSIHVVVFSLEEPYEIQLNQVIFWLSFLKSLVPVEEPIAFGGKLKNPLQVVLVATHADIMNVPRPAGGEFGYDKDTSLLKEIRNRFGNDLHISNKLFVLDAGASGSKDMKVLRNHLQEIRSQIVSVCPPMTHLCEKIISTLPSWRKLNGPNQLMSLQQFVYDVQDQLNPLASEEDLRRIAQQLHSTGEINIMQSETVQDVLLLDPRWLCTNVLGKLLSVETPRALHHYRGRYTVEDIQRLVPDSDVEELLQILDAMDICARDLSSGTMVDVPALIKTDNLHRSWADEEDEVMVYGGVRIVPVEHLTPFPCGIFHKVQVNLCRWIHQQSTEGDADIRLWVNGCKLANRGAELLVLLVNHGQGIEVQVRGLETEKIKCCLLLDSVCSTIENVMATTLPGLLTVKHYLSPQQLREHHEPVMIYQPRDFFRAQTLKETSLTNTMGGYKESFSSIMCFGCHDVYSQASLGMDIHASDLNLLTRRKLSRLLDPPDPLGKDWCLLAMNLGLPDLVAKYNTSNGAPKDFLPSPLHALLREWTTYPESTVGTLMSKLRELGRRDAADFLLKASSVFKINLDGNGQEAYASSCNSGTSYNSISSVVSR

Row | Structure (SMILES) | remaining activity at 1 µM (DAPK1; [1]) | remaining activity at 1 µM (DAPK1; [2]) | remaining activity at 1 µM (DAPK1; [3]) | remaining activity at 10 µM (DAPK1; [4]) | remaining activity at 10 µM (DAPK1; [5]) | remaining activity at 10 µM (DAPK1; [6]) | remaining activity at 1 µM (EPHB4; [7]) | remaining activity at 1 µM (EPHB4; [8]) | remaining activity at 1 µM (EPHB4; [9]) | remaining activity at 10 µM (EPHB4; [10]) | remaining activity at 10 µM (EPHB4; [11]) | remaining activity at 10 µM (EPHB4; [12]) | remaining activity at 1 µM (CK1d; [13]) | remaining activity at 1 µM (CK1d; [14]) | remaining activity at 1 µM (CK1d; [15]) | remaining activity at 10 µM (CK1d; [16]) | remaining activity at 10 µM (CK1d; [17]) | remaining activity at 10 µM (CK1d; [18]) | remaining activity at 1 µM (VEGFR2; [19]) | remaining activity at 1 µM (VEGFR2; [20]) | also measured
1 | NCCCCCC(=O)O [Aminocaproic acid] | 114% | 116% | 112% | 110% | 109% | 111% | 103% | 103% | 104% | 93.5% | 92.2% | 94.7% | 118% | 116% | 120% | 125% | 122% | 127% |  |  | 
2 | COc1cc2c(c(OC)c1OC)-c1ccc(OC)c(=O)cc1[C@@H](NC(C)=O)CC2 [Colchicine] |  |  |  |  |  |  |  |  |  |  |  |  |  |  |  |  |  |  |  |  | % Enzyme Activity (relative to DMSO controls), Data 2 (DAPK1; DAPK1, 1 uM, replicate Data 2): 111.85%; % Enzyme Activity (relative to DMSO controls), Data 2 (DAPK1; DAPK1, 10 uM, replicate Data 2): 96.44%; % Enzyme Activity (relative to DMSO controls), Data 2 (EPHB4; EPHB4, 1 uM, replicate Data 2): 106.52%; % Enzyme Activity (relative to DMSO controls), Data 2 (EPHB4; EPHB4, 10 uM, replicate Data 2): 99.11%; % Enzyme Activity (relative to DMSO controls), Data 2 (VEGFR2; 1 uM, replicate Data 2): 110.08%; % Enzyme Activity (relative to DMSO controls), Data 2 (VEGFR2; 10 uM, replicate Data 2): 105.23%; % Enzyme Activity (relative to DMSO controls), Data 2 (CK1d; CK1d, 10 uM, replicate Data 2): 111.97%
3 | O=C1Nc2ccc(Cl)cc2[C@@](C#CC2CC2)(C(F)(F)F)O1 [Efavirenz] |  |  |  |  |  |  |  |  |  |  |  |  |  |  |  |  |  |  |  |  | % Enzyme Activity (relative to DMSO controls), Data 1 (NEK2; 1 uM): 110.94%; % Enzyme Activity (relative to DMSO controls), Data 1 (NEK2; 10 uM): 81.38%; % Enzyme Activity (relative to DMSO controls), Data 1 (EPHB4; EPHB4, 1 uM, replicate Data 1): 93.6%; % Enzyme Activity (relative to DMSO controls), Data 1 (EPHB4; EPHB4, 10 uM, replicate Data 1): 93.32%; % Enzyme Activity (relative to DMSO controls), Data 1 (VEGFR2; 1 uM, replicate Data 1): 102.21%; % Enzyme Activity (relative to DMSO controls), Data 1 (VEGFR2; 10 uM, replicate Data 1): 95.58%; % Enzyme Activity (relative to DMSO controls), Data 1 (CK1d; CK1d, 1 uM, replicate Data 1): 101.66%
4 | CC(=O)O[C@H]1C[C@@]2(C)[C@@H](C[C@@H](O)[C@H]3[C@@]4(C)CC[C@@H](O)[C@@H](C)[C@@H]4CC[C@@]32C)/C1=C(\CCC=C(C)C)C(=O)O [Fusidic acid] | 96.4% | 102% | 90.5% | 93.7% | 93% | 94.5% | 101% | 101% | 101% | 92.3% | 95.3% | 89.3% | 100% | 95.3% | 105% | 111% | 113% | 108% | 109% | 110% | remaining activity at 1 µM (VEGFR2; [21]): 107%; remaining activity at 10 µM (VEGFR2; [22]): 101%; remaining activity at 10 µM (VEGFR2; [23]): 96%; remaining activity at 10 µM (VEGFR2; [24]): 105%
5 | CC(C)c1cccc(C(C)C)c1O [Propofol, reference compound] |  |  |  |  |  |  |  |  |  |  |  |  |  |  |  |  |  |  |  |  | remaining activity at 1 µM (DAPK1; [25]): 107%; remaining activity at 10 µM (DAPK1; [25]): 86.5%; remaining activity at 1 µM (DAPK1; [26]): 113%; remaining activity at 10 µM (DAPK1; [26]): 86.4%; remaining activity at 1 µM (DAPK1; [27]): 102%; remaining activity at 10 µM (DAPK1; [27]): 86.5%; remaining activity at 1 µM (EPHB4; [25]): 67%; remaining activity at 10 µM (EPHB4; [25]): 68.4%; remaining activity at 1 µM (EPHB4; [26]): 76%; remaining activity at 10 µM (EPHB4; [26]): 68.4%; remaining activity at 1 µM (EPHB4; [27]): 57.9%; remaining activity at 10 µM (EPHB4; [27]): 68.5%; remaining activity at 1 µM (EPHB4; read-out: % Enzyme activity at 1μM): 67%; remaining activity at 10 µM (EPHB4; read-out: % Enzyme activity at 10μM): 68.4%; remaining activity at 1 µM (CK1d; [25]): 126%; remaining activity at 10 µM (CK1d; [25]): 112%; remaining activity at 1 µM (CK1d; [26]): 145%; remaining activity at 10 µM (CK1d; [26]): 116%; remaining activity at 1 µM (CK1d; [27]): 108%; remaining activity at 10 µM (CK1d; [27]): 108%
6 | CC(C)c1nc(CN(C)C(=O)N[C@H](C(=O)N[C@@H](Cc2ccccc2)C[C@H](O)[C@H](Cc2ccccc2)NC(=O)OCc2cncs2)C(C)C)cs1 [Ritonavir, reference compound] | 92.6% | 94.8% | 90.4% | 38.5% | 39.2% | 37.7% | 99.2% | 99.5% | 98.9% | 95.1% | 97.2% | 93.1% |  |  |  |  |  |  | 111% | 111% | remaining activity at 1 µM (DAPK1; DAPK1, compound 1μM, relative to DMSO controls, read-out: % Enzyme activity at 1μM): 92.6%; remaining activity at 10 µM (DAPK1; DAPK1, compound 10μM, relative to DMSO controls, read-out: % Enzyme activity at 10μM): 38.5%; remaining activity at 1 µM (VEGFR2; [21]): 112%; remaining activity at 10 µM (VEGFR2; [22]): 109%; remaining activity at 10 µM (VEGFR2; [23]): 113%; remaining activity at 10 µM (VEGFR2; [24]): 106%

Source: publication PMC7252619 (PLoS ONE, 2020)
